Results on 13 substances are retold here after patent US11952432B2, “Cell-permeable stapled peptide modules for cellular delivery” (Dana-Farber Cancer Institute, Inc., priority 2018, dated 2024).

Data set [1] deals with cells. Description: Cellular uptake and intracellular distribution of TAMRA-labeled peptides by fluorescence microscopy. The settings on record: for Distribution/Observations: TAMRA-labeled peptides 10 μM, approximately 1 hour incubation, fluorescence microscope. The text has this: In Vitro Cell Uptake Assays: To assess cellular uptake of cargoes that are bound to cell-permeable stapled peptide modules, fluorescent tracers (e.g. TAMRA, FITC) are attached to the cell-permeable stapled peptide modules or the cargos. The cellular uptake can be tracked by, e.g., epifluorescence microscopy, fluorescence microscopy, confocal microscopy, and/or flow cytometry, at different time periods. In this manner, the rate of uptake and the intracellular distribution patterns of the stabilized peptides (e.g., CPSPs and CPSP-conjugates, other cell-permeable stapled peptides) can also be determined.
CPSP1-CPSP9 and L-CPSP (where L is an F-actin staining peptide) were labeled with a fluorescent dye, TAMRA. […] These TAMRA-labeled peptides (10 μM) were added to cell culture. After incubating the peptides with the cells for approximately 1 hour, the cells were examined by a fluorescence microscope.
Furthermore, TAMRA-labeled CPSP3 (SEQ ID NO: 14) (10 μM) and MitoTracker were both added to the cell culture.

Data set [2] concerns the target T1, MCL-1 (Homo sapiens, UniProt Q07820).
T1 construct: expressed in transfected cells
The data set can be described thus: Intracellular binding assay: colocalization with expressed MCL-1 ectopically targeted to the nuclear lamina. The class given is cell-based. As to conditions: colocalization at nuclear lamina with ectopically targeted MCL-1 (FIG. 5). The text has this: Intracellular binding Assays: To assess the binding of the CPSP-fusions to their respective protein target(s), cells were transfected with a GFP binding nanobody fraction coupled to nuclear lamina binding sequence (lamin B1). This nanobody binds to GFP tagged proteins and recruits them to the nuclear lamina allowing the recruitment and visualization of proteins interacting with the GFP tagged protein of interest. For example, GFP-MCL-1 can be expressed and localized to the nuclear lamina, followed by treatment of cells with TAMRA-labeled ATSP-7041/MCL-1 SAHBD fusion, followed by confocal microscopy imaging to monitor for the colocalization of TAMRA-labeled CPSP fusion at the nuclear lamina.

Data set [3] has as its system mitochondria of the treated cells. Description: Co-labeling of TAMRA-labeled CPSP3 with MitoTracker. As to conditions: 10 μM (FIG. 2); listed as TAMRA-labeled CPSP3. It is filed as cell-based.
Setting [4] is: conjugated to CPSP3, 10 μM (FIG. 3B).

Entries after “also recorded” stand apart in the source; their conditions may differ. Bridge positions count the residues as written; N and C are the ends. Square brackets hold non-standard residues; d marks the D form. Ends that are not written are not given here. R8 = C=CCCCCCC[C@@](C)(N)C(=O)O; S5 = C=CCCC[C@](C)(N)C(=O)O; Nle = CCCC[C@H](N)C(=O)O; CycB = not defined here; βAla = NCCC(=O)O

T1 sequence (Q07820 whole entry, species assumed): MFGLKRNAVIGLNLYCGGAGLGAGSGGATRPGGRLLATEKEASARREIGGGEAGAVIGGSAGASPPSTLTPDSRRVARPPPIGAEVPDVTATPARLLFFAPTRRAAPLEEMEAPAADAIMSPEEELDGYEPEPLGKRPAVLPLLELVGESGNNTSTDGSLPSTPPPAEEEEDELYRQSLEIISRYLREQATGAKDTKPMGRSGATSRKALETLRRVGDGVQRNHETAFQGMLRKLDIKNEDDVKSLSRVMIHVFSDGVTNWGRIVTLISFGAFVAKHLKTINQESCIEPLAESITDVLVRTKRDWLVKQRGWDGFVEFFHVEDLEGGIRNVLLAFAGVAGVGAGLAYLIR

On to “* Ba LTF8EYWAQ CycB XSAAAGGGGGK (SEQ ID NO: 61) -[GCCTAGTTTATCACCAATAAT] (SEQ ID NO: 62) [TAMRA-ATSP-7041/PNA]”, for which the intracellular delivery entry in data set [1] (PNA fusion (FIG. 6)) is recorded as “robust intracellular delivery”. As to “* Ba R K A L E T L R R V B D G V X R N H X T A F G G G G G L T F 8 E Y W A Q CycB X S A A (SEQ ID NO: 22) ([βAla]RKALETLRRV[Nle]DGV[S5]RNH[S5]TAFGGGGGLTF[R8]EYWAQ[CycB][S5]SAA; staple 16-20, 32-39 (inferred); reading uncertain; also: TAMRA label) [TAMRA-labeled MCL-1 SAHBD/ATSP-7041]”, the “delivery to the cytosol of treated cells” value in data set [1] (4 μM, 4 hours (FIG. 1, FIGS. 4A-B)) is “efficiently delivered to the cytosol”. Also, the “intracellular engagement of MCL-1” value is listed as “colocalization of the fusion to the nuclear lamina” in data set [2] and “retains the capacity to engage its intracellular target” in data set [2] (listed as CPSP-MCL-1 SAHBD conjugate).

Take “* Ba X R R R X R B (SEQ ID NO: 18) [TAMRA-CPSP7]”: the Distribution/Observations entry in data set [1] is listed as “Cytosol; Nucleus; Nucleolus; Endosomes; lysosomes”.

Take “* Ba X R r R X (SEQ ID NO: 13) [TAMRA-CPSP2]”: in data set [1], the Distribution/Observations entry is “Cytosol; Nucleus; Nucleolus; Endosomes; lysosomes”. Same read-out and setting: under “* Ba X R r R X B (SEQ ID NO: 15) [TAMRA-CPSP4]” stands “Cytosol; Nucleus; Nucleolus; Endosomes; lysosomes”; under “* Ba X R r R X Naph (SEQ ID NO: 17) [TAMRA-CPSP6]”, “Cytosol; Nucleus; Nucleolus; Endosomes; lysosomes”. On the same count and under the same terms, under “* Ba X R r R X R (SEQ ID NO: 12) [TAMRA-CPSP1]” stands “Cytosol; Nucleus; Nucleolus; Endosomes; lysosomes”. Take “* Ba X R r R X R B (SEQ ID NO: 14) [TAMRA-CPSP3]”: the “enrichment at the mitochondria (co-labeling with MitoTracker)” value in data set [3] is recorded as “Enrichment of TAMRA-labeled CPSP3 at the mitochondria”. Moreover, the Distribution/Observations result in data set [1] is given as “CPSP3 were enriched at mitochondria as well as Cytosol;; also recorded: Nucleus; Nucleolus; Endosomes; lysosomes”. In the case of “* Ba X R r R X R B G B R X R r R X (SEQ ID NO: 19) [TAMRA-CPSP8]”, in data set [1], the Distribution/Observations result was “Cytosol; Nucleus; Nucleolus; Endosomes; lysosomes”.

As for “* Ba X R r R X R B G X R r R X R B (SEQ ID NO: 20) [TAMRA-CPSP9]”, the Distribution/Observations result in data set [1] was “Cytosol; Nucleus; Nucleolus; Endosomes; lysosomes”. As to “* Ba X R r R X R Naph (SEQ ID NO: 16) [TAMRA-CPSP5]”, the Distribution/Observations result in data set [1] was “Cytosol; Nucleus; Nucleolus; Endosomes; lysosomes”. With “* Ba XRrRXRB-GZG-EALKKALRRHRFLWQR RQRA (SEQ ID NO: 63) ([βAla][S5]R[dR]R[S5]R[Nle]G[βAla]GEALKKALRRHRFLWQRRQRA; not fully specified (N-terminus, bridges); bridges not given here; also: TAMRA label) [TAMRA-CPSP3/vMIA]”, the intracellular delivery result in data set [1] (10 μM, 1 h (FIG. 7, bottom panel)) is on record as “robust intracellular delivery”. Consider “Ac B G V A D L I K K F E X I A K X E K* G G G G G X R r R X R B (SEQ ID NO: 21) (Ac-[Nle]GVADLIKKFE[S5]IAK[S5]EK(TAMRA)GGGGG[S5]R[dR]R[S5]R[Nle]; not fully specified (bridges); bridges not given here) [TAMRA-L-CPSP3]”, for which, in data set [1], the Distribution/Observations result is recorded as “Cytosol; Nucleus; Nucleolus; Endosomes; lysosomes;; also recorded: Actin filaments”. Besides, in data set [1] (setting [4]), the “delivery of the peptide into the cell” value was “robust delivery of the peptide into the cell” and the intracellular localization result was “notable localization of L-CPSP3 to actin filaments”.
